Test results taken from US6066642A, “Dihydropyridine-, pyridine-, benzopyran-4-one- and triazoloquinazoline derivative, their preparation and their use as adenosine receptor antagonists” (priority 1998, dated 2000).
Where two headings read alike, the source gives them in different places. Each block holds one compound with its values, some of them ahead of it.

Target: T1, A2a receptors (Rattus norvegicus, UniProt P30543)
T1 construct: Displacement of specific [^3 H]; from tissue; host or cells: rat striatal membranes
Assay: radioligand binding, displacement of specific [3H]CGS 21680 binding in rat striatal membranes
Details: for Ki: [3H]CGS 21680, rat striatal membranes

[1] = Table 12, 10^-4 M, read-out: % inhibition rA2A
[2] = Table 12, 10^-4 M, read-out: displacement of specific binding rA2A
[3] = Table 11, 10^-4 M, read-out: % inhibition rA2A
[4] = Table 11, 10^-4 M, read-out: displacement of specific binding rA2A

T1 sequence (P30543 whole entry): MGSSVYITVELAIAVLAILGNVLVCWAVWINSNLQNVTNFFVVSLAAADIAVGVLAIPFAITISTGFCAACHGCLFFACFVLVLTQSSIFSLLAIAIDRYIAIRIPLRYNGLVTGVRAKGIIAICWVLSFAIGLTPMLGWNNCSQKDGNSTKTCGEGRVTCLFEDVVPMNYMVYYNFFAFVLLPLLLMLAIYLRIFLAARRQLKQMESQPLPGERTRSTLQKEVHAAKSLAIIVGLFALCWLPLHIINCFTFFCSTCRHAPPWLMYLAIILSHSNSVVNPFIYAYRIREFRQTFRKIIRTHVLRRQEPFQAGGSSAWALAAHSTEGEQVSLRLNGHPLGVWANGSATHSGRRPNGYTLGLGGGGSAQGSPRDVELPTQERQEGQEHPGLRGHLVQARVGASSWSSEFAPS
Experimental: ^b Displacement of specific [^3 H]
or as a percentage of specific binding displaced at 100 μM.

% inhibition rA2A (Table 12, 10^-4 M): 36%
Compound: 3,5-Diethyl 2,6-dimethyl-4-(2-thienyl)-1,4-(±)-dihydropyridine-3,5-dicarboxylate [Compound 114]

Compound: CCOC(=O)C1=C(c2ccccc2)NC(C)=C(C(=O)OC[C@H](OC)c2ccccc2)C1C#Cc1ccccc1 (mixture of isomers) [Compound 128, 3-(2-Methoxy-2-phenyl)-ethyl 5-Ethyl 2-methyl-4-phenylethynyl-6-phenyl-1.4-(±)-dihydropyridine-3,5-dicarboxylate]
inhibition at 100 µM [1]: 33%

Compound: CCOC(=O)C1=C(C)NC(C)=C(C(=O)OC)C1C (racemic) [Compound 52, 3-Methyl-5-ethyl 2,4,6-trimethyl-1,4(R,S)-dihydropyridine-3,5-dicarboxylate]
Ki (Table 9, read-out: Ki rA2A): > 100 µM

inhibition at 100 µM (Table 9, 10^-4 M, read-out: % of specific binding displaced rA2A): 19%
Compound: COCCOC(=O)C1=C(C)NC(C)=C(C(=O)OC)C1C (racemic) [Compound 53, 3-methyl,5-(2-methoxy)ethyl 2,4,6-trimethyl-1,4(R,S)-dihydropyridine-3,5-dicarboxylate]

Ki (Table 9, read-out: Ki rA2A): 9.72 µM
Compound: COC(=O)C1=C(C)NC(C)=C(C(=O)OCc2ccccc2)C1C (racemic) [Compound 54, 3-methyl,5-benzyl 2,4,6-trimethyl-1,4(R,S)-dihydropyridine-3,5-dicarboxylate]

Ki (Table 9, read-out: Ki rA2A): 9.56 ± 2.69 µM
Compound: CCOC(=O)C1=C(C)NC(C)=C(C(=O)OC)C1CC (racemic) [Compound 56, 3-Methyl-5-ethyl-2,6-dimethyl-4-ethyl-1,4(R,S)-dihydropyridine-3,5-dicarboxylate]

Ki (Table 9, read-out: Ki rA2A): 11.5 µM
Compound: CCCC1C(C(=O)OC)=C(C)NC(C)=C1C(=O)OCC (racemic) [Compound 57, 3-methyl,5-ethyl 2,6-dimethyl-4-propyl-1,4(R,S)-dihydropyridine-3,5-dicarboxylate]

Ki (Table 9, read-out: Ki rA2A): 23.1 µM
Compound: CCOC(=O)C1=C(C)NC(C)=C(C(=O)OC)C1CC(C)CCC=C(C)C (racemic) [Compound 58]

Ki (Table 9, read-out: Ki rA2A): 20.7 µM
Compound: CCOC(=O)C1=C(C)NC(C)=C(C(=O)OC)C1c1ccccc1C(F)(F)F (racemic) [Compound 68, 3-methyl-5-ethyl-2,6-dimethyl-4-(2-α,α,α-trifluoromethylphenyl)-1,4(R,S)-dihydropyridine-3,5-dicarboxylate]

Ki (Table 9, read-out: Ki rA2A): 12.7 ± 3.8 µM
Compound: CCOC(=O)C1=C(C)NC(C)=C(C(=O)OC)C1c1ccc(OC)cc1 (racemic) [Compound 71, 3-methyl-5-ethyl-2,6-dimethyl-4-(4-methoxyphenyl)-1,4(R,S)-dihydropyridine-3,5-dicarboxylate]

Ki (Table 9, read-out: Ki rA2A): 56.8 ± 1.9 µM
Compound: CCOC(=O)C1=C(C)NC(C)=C(C(=O)OC)C1c1ccc(O)c(OC)c1 (racemic) [Compound 72, 3-methyl-5-ethyl-2,6-dimethyl-4-(4-hydroxy,3-methoxyphenyl)-1,4(R,S)-dihydropyridine-3,5-dicarboxylate]

Ki (Table 9, read-out: Ki rA2A): 38 ± 10.6 µM
Compound: CCCCC1=C(C(=O)OCC)C(C)C(C(=O)OCC)=C(C)N1 (racemic) [Compound 77, 3,5-diethyl-2,4-dimethyl-6-butyl-1,4(R,S)-dihydropyridine-3,5-dicarboxylate]

Ki (Table 9, read-out: Ki rA2A): 35.9 µM
Compound: CCOC(=O)C1=C(C)NC(c2ccccc2)=C(C(=O)OCC)C1C (racemic) [Compound 78, 3,5-diethyl-2,4-dimethyl-6-phenyl-1,4(R,S)-dihydropyridine-3,5-dicarboxylate]

Compound: CCOC(=O)C1=C(C)NC(c2ccccc2)=C(C(=O)OCC)C1C#Cc1ccccc1 (racemic) [Compound 98]
inhibition at 100 µM (read-out: % inhibition rA2A): 26%

Compound: CCOC(=O)C1=C(C)NC(c2ccccc2)=C(C(=O)OCC)C1c1ccccc1 (racemic) [Compound 110, 3,5-Diethyl 2-methyl-4,6-diphenyl-1,4-(±)-dihydropyridine-3,5-dicarboxylate]
inhibition at 100 µM [2]: < 10%

Compound: CCOC(=O)C1=C(C)NC(c2ccccc2)=C(C(=O)OCC)C1c1ccccn1 (racemic) [Compound 111, 3,5-Diethyl 2-methyl-4-(2-pyridyl)-6-phenyl-1,4-(±)-dihydropridine-3,5-dicarboxylate]
inhibition at 100 µM [1]: 25%

Compound: CCOC(=O)C1=C(C)NC(c2ccccc2)=C(C(=O)OCC)C1c1cccnc1 (racemic) [Compound 112, 3,5-Diethyl 2-methyl-4-(3-pyridyl)-6-phenyl-1,4-(±)-dihydropridine-3,5-dicarboxylate]
inhibition at 100 µM [1]: 40%

Compound: CCOC(=O)C1=C(C)NC(c2ccccc2)=C(C(=O)OCC)C1c1ccncc1 (racemic) [Compound 113, 3.5-Diethyl 2-methyl-4-(4-pyridyl)-6-phenyl-1,4(±)-dihydropyridine-3.5-dicarboxylate]
Ki (Table 12, read-out: Ki rA2A): 44.7 ± 3.7 µM

Compound: CCOC(=O)C1=C(C)NC(c2ccccc2)=C(C(=O)OCC)C1c1cc2ccccc2o1 (racemic) [Compound 116, 3,5-Diethyl 2-methyl-4-(2-benzofuryl)-6-phenyl-1,4-(±)-dihydropridine-3,5-dicarboxylate]
inhibition at 100 µM [2]: < 10%

Compound: CCOC(=O)C1=C(C)NC(c2ccccc2)=C(C(=O)OCC[Si](C)(C)C)C1C#Cc1ccccc1 (racemic) [Compound 129, 3-Ethyl 5-(2-trimethylsilyl)-ethyl 2-methyl-4-phenylethynyl-6-phenyl-1,4-(±)-dihydropyridine-3,5-dicarboxylate]
inhibition at 100 µM [1]: 18 ± 5%

Compound: CCOC(=O)C1=C(C)NC(c2ccccc2)=C(C(=O)SCC)C1C#Cc1ccccc1 (racemic) [Compound 130a, 3-Ethyl 5-thioethyl 2-methyl-4-phenylethynyl-6-phenyl-1,4(±)-dihydropyridine-3,5-dicarboxylate]
inhibition at 100 µM [1]: 17%

Compound: CCNC(=O)C1=C(c2ccccc2)NC(C)=C(C(=O)OCC)C1C#Cc1ccccc1 (racemic) [Compound 132, 3-Ethoxycarbonyl-2-methyl-4-phenylethynyl-6-phenyl-1,4(±)-dihydropyridine-5-carboxylic ethyl amide]
inhibition at 100 µM [1]: 47%

Compound: CCOC(=O)C1=C(c2ccccc2)NC(C)=C(C(=O)OC(C)(C)C)C1C#Cc1ccccc1 (racemic) [Compound 133, 3-t-Butyl 5-ethyl 2-methyl-4-phenylethynyl-6-phenyl-1,4-(±)-dihydropyridine-3,5-dicarboxylate]
inhibition at 100 µM [1]: 20 ± 2%

inhibition at 100 µM [1]: 19 ± 6%
Compound: CCNC(=O)C1=C(C)NC(c2ccccc2)=C(C(=O)OCC)C1C#Cc1ccccc1 (racemic) [Compound 134, 5-Ethoxycarbonyl-2-methyl-4-phenylethynyl-6-phenyl-1,4-(±)-dihydropyridine-3-carboxylic ethyl amide]

inhibition at 100 µM (read-out: % inhibition rA2A): 17 ± 7%
Compound: CCOC(=O)C1=C(c2ccccc2)NC(C)=C(C(C)=O)C1C#Cc1ccccc1 (racemic) [Compound 135]

Compound: CCOC(=O)C1=C(c2ccccc2)NC2=C(C(=O)CCC2)C1C#Cc1ccccc1 (racemic) [Compound 136, Ethyl 3-oxo-1,4,5,6,7,8-hexahydroquinoline-2-methyl-4-phenylethynyl-6-phenyl-1,4-±-dihydropyridin-5-carboxylate]
inhibition at 100 µM [1]: 22 ± 4%

Ki (Table 11, read-out: Ki rA2A): 2.6 µM
Compound: CCOC(=O)c1c(C)nc(-c2ccccc2)c(C(=O)OCC)c1/C=C/c1ccccc1 [A]

Compound: CCOc1cc(O)c2c(=O)c(OCC)c(-c3ccccc3)oc2c1 [Compound 3b, 3,7-Diethoxy-5-hydroxyflavone]
Ki (Table 3, read-out: Ki rA2a): 63.8 ± 18.8 µM

Compound: O=c1c(O)c(-c2ccc(O)c(O)c2)oc2cc(O)cc(O)c12 [Compound 37, quercetin, reference compound]
Ki (Table 6, read-out: K2 (rA2a)): 6.99 ± 0.89 µM

Ki (Table 9, read-out: Ki rA2A): 7.1 µM
Compound: CCOC(=O)C1=C(C)NC(C)=C(C(=O)OCCCSc2ccccc2)C1C (stereo not drawn) [Compound 55]

Ki (Table 9, read-out: Ki rA2A): 18.2 µM
Compound: CCOC(=O)C1=C(C)NC(C)=C(C(=O)OCC)C1c1cccc([N+](=O)[O-])c1 [Compound 62]

Ki (Table 9, read-out: Ki rA2A): 6.71 ± 2.06 µM
Compound: CCOC(=O)C1=C(C)NC(C)=C(C(=O)OC)C1CCc1ccccc1 (stereo not drawn) [Compound 74]

Compound: CCOC(=O)c1c(C)nc(-c2ccccc2)c(C(=O)OCC)c1C [Compound 81]
Ki (Table 10, read-out: Ki rA2a): 28.4 µM

Compound: CCOC(=O)C1=C(C)NC(C)=C(C(=O)OCC)C1/C=C/c1ccccc1 [Compound 84]
Ki (Table 11, read-out: Ki rA2A): 9.23 ± 3.6 µM

inhibition at 100 µM [3]: 14.4 ± 4%
Compound: CCOC(=O)C1=C(C)NC(C)=C(C(=O)OCc2ccccc2)C1/C=C/c1ccccc1 (stereo not drawn) [Compound 85]

Compound: CCOC(=O)C1=C(C)NC(c2ccccc2)=C(C(=O)OCC)C1CC (stereo not drawn) [Compound 86]
Ki (Table 11, read-out: Ki rA2A): 14.5 µM

Compound: CCOC(=O)C1=C(C)NC(c2ccccc2)=C(C(=O)OCc2ccccc2)C1C (stereo not drawn) [Compound 87]
Ki (Table 11, read-out: Ki rA2A): 3.15 µM

Compound: CCOC(=O)C1=C(C)NC(c2ccc(C)cc2)=C(C(=O)OCC)C1/C=C/c1ccccc1 (stereo not drawn) [Compound 88]
inhibition at 100 µM [3]: 37%

Compound: CCOC(=O)C1=C(C)NC(c2ccc(OC)cc2)=C(C(=O)OCC)C1/C=C/c1ccccc1 (stereo not drawn) [Compound 89]
inhibition at 100 µM [4]: < 10%

Compound: CCOC(=O)C1=C(C)NC(c2ccc(Cl)cc2)=C(C(=O)OCC)C1/C=C/c1ccccc1 (stereo not drawn) [Compound 90]
inhibition at 100 µM [3]: 12 ± 7%

Compound: CCOC(=O)C1=C(C)NC(c2ccoc2)=C(C(=O)OCC)C1/C=C/c1ccccc1 (stereo not drawn) [Compound 92]
inhibition at 100 µM [3]: 35 ± 6%

Compound: CCOC(=O)C1=C(C)NC(c2ccsc2)=C(C(=O)OCC)C1/C=C/c1ccccc1 (stereo not drawn) [Compound 93]
inhibition at 100 µM [4]: < 10%

Compound: CCOC(=O)C1=C(C)NC(c2ccccc2)=C(C(=O)OCC)C1/C=C/c1ccccc1OC (stereo not drawn) [Compound 94]
inhibition at 100 µM [3]: 17 ± 12%

Compound: CCOC(=O)C1=C(C)NC(c2ccccc2)=C(C(=O)OCC)C1/C=C/c1ccccc1[N+](=O)[O-] (stereo not drawn) [Compound 95]
inhibition at 100 µM [4]: < 10%

Compound: CCOC(=O)C1=C(C)NC(c2ccccc2)=C(C(=O)OCC)C1C=C(c1ccccc1)c1ccccc1 (stereo not drawn) [Compound 97]
Ki (Table 11, read-out: Ki rA2A): 8 µM

Compound: CCOC(=O)C1=C(C)NC(c2ccccc2)=C(C(=O)OCC)C1C#Cc1ccccc1 (stereo not drawn) [Compound 109]
inhibition at 100 µM [1]: 25 ± 3%

Compound: CCOC(=O)C1=C(C)NC(c2ccccc2)=C(C(=O)OCC)C1c1ccco1 (stereo not drawn) [Compound 115]
inhibition at 100 µM [2]: < 10%

Compound: CCOC(=O)C1=C(c2ccccc2)NC(C)=C(C(=O)SCC)C1C#Cc1ccccc1 (stereo not drawn) [Compound 130b]
Ki (Table 12, read-out: Ki rA2A): 5.15 ± 1.83 µM
